Source: patent US7410975B2, “Small molecule toll-like receptor (TLR) antagonists” (Coley Pharmaceutical Group, Inc., priority 2003, dated 2008)

Biological target: T1, human TLR8 (hTLR8) (Homo sapiens, UniProt Q9NR97)
T1 construct: expressed in transfected cells
T1 sequence (Q9NR97 27-1041): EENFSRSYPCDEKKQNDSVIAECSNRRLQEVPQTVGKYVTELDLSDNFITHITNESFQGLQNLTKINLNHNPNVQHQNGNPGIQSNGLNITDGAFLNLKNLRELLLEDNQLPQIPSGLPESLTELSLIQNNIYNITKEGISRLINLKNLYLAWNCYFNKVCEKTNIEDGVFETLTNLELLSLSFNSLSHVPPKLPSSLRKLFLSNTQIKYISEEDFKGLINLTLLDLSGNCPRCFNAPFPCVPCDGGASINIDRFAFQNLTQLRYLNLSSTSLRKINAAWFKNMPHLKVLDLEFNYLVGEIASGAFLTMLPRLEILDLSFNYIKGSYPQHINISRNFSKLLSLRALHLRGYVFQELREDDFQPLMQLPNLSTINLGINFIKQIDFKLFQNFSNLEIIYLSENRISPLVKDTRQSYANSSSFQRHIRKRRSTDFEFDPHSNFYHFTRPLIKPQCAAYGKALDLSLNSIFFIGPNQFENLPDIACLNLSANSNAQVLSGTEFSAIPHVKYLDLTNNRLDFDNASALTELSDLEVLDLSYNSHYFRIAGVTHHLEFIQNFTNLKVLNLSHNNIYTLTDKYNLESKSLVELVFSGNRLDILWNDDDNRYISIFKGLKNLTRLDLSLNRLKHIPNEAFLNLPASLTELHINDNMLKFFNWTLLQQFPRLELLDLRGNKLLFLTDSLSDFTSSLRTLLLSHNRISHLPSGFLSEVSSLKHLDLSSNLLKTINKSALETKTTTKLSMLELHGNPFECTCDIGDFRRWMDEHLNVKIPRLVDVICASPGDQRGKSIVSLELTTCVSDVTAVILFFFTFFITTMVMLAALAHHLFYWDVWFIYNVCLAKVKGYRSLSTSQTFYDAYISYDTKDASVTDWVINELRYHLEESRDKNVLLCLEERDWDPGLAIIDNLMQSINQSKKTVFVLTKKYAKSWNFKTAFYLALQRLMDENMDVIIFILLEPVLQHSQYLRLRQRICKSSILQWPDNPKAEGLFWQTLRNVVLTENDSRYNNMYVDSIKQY
Assay: Antagonist screen, hTLR8-NFκB-293 cells, NF-κB-luciferase reporter, with EC50 of R848
Type: cell-based
Details: compound at 0.5, 5, 50 μg/ml; EC50 concentration of R848; 16 h; NF-κB-luciferase
Experimental: The method is described in greater detail as follows. The cells for each individual cell clone (hTLR3-NFκB-293, hTLR7-NFκB-293, hTLR8-NFκB-293 and hTLR9-NFκB-293) were counted and seeded one day before the stimulation at 1.5×10^4 cells per well in 96-well cell culture plates. To become adherent the cells were incubated after seeding overnight at 37° C. in 5% CO2 humidified air.
The screen for each compound was performed at the same time for all of the receptors TLR3, TLR7, TLR8 and TLR9. Up to fifteen test compounds, each assayed in duplicate at each of three different final concentrations (0.5 μg/ml, 5 μg/ml, and 50 μg/ml), were used for 16 h cell stimulation on a single multiwell culture plate. A 4× final concentration master plate was created to prepare the different test compounds before they were added to the cells.
Controls were added as duplicates individually for each cell clone on the cell culture plate. Positive controls were used as follows (final concentrations): 50 μg/ml poly(I:C) for hTLR3-NFκB-293; 8 μM resiquimod (R848) for hTLR7-NFκB-293; 30 μM R848 for hTLR8-NFκB-293; and 2.5 μM CpG-ODN 2006 for hTLR9-NFκB-293. Media alone was used as negative control. After addition of controls and small molecules, the cell clones were additionally stimulated with the EC50 concentration of the appropriate receptor-specific ligand.
The mean value of wells H2 and H5 (each with cells and EC50 concentration of the appropriate receptor-specific ligand) divided by the mean of wells H3 and H6 (each with cells alone) yielded the baseline response (i.e., fold induction of luciferase activity) to EC50 concentration of the appropriate receptor-specific ligand.
After 16 h stimulation the supernatant was removed and the cells treated with lysis buffer and stored at −80° C. before measuring.
For each screen result a graphical documentation was performed.
The baseline result (measured with addition of the EC50 concentration of the receptor-specific ligand) for each cell culture plate was measured as described above. Antagonistic effects were measured by down regulation compared to the baseline. Antagonists were scored as follows: • 13: compounds for which there was clear down regulation at 0.5 μg/ml, 5 μg/ml, and 50 μg/ml; • 12: compounds for which there was clear down regulation at 5 μg/ml and 50 μg/ml; • 11: compounds for which there was clear down regulation only at 50 μg/ml; • —: compounds for which there was no clear down regulation even at 50 μg/ml. Agonists
Results were expressed as fold induction over baseline luciferase activity measured in the absence of R848. […] Additional screening was performed in like manner using additional small molecules selected from another library or specifically prepared for this purpose. Scoring is reported as above but as applied to TLR8.

| Compound | hTLR8 (inhibitory effect, antagonist score) |
| --- | --- |
| Cc1cc(OC(=O)C2C3CCCCC32)c(C(C)C)cc1C1(c2cc(C(C)C)c(OC(=O)C3C4CCCCC43)cc2C)OC(=O)c2ccccc21 (centres unmarked) [compound 974] | 11 (compounds for which there was clear down regulation only at 50 μg/ml) |
| CCN(CC)CCCN(CC(=O)C1c2ccc(Cl)cc2NC(=O)c2ccccc21)C(=O)c1ccccc1 (centres unmarked) [compound 1013] | — (compounds for which there was no clear down regulation even at 50 μg/ml) |
| O=C1c2ccccc2C(=O)c2c1ccc1c(=O)n(C3CCCCC3)[nH]c21 [compound 1015] | 11 (compounds for which there was clear down regulation only at 50 μg/ml) |
| CCOC(=O)c1cc([N+](=O)[O-])cc2c1-c1ccc([N+](=O)[O-])cc1C2=C(C#N)C#N [compound 1039] | 11 (compounds for which there was clear down regulation only at 50 μg/ml) |
| O=C1c2ccccc2C(=O)c2c1ccc1c(=O)n(-c3ccccc3)[nH]c21 [compound 1042] | 13 (compounds for which there was clear down regulation at 0.5 μg/ml, 5 μg/ml, and 50 μg/ml) |
| O=C(c1cccc2c1-c1ccccc1/C2=N\O)N1CCCCC1 [compound 1050] | 11 (compounds for which there was clear down regulation only at 50 μg/ml) |
| NC(=O)c1cccc2c1-c1ccccc1C2 [compound 1132] | 11 (compounds for which there was clear down regulation only at 50 μg/ml) |
| NC(=O)c1cc(N)c2c(c1N)C(=O)c1ccccc1C2=O [compound 1158] | — (compounds for which there was no clear down regulation even at 50 μg/ml) |
| CC(=O)Oc1cc(C)c(C2(c3cc(C(C)C)c(OC(C)=O)cc3C)OC(=O)c3ccccc32)cc1C(C)C [compound 1161] | 12 (compounds for which there was clear down regulation at 5 μg/ml and 50 μg/ml) |
| COC(=O)c1cccc(C(O)(c2ccccc2)c2ccccc2)c1S(=O)(=O)C(C)(C)C [compound 1187] | 11 (compounds for which there was clear down regulation only at 50 μg/ml) |
| CCOCCOC(=O)c1cc([N+](=O)[O-])cc2c1-c1c(cc([N+](=O)[O-])cc1[N+](=O)[O-])C2=C(C#N)C#N [compound 1241] | — (compounds for which there was no clear down regulation even at 50 μg/ml) |
| CC1CCN(C(=O)c2cccc3c2-c2ccccc2C3=O)CC1 [compound 1243] | 11 (compounds for which there was clear down regulation only at 50 μg/ml) |
| Cc1cccc(C2(c3cccc(C)c3)OC(=O)c3ccccc32)c1 [compound 1308] | 12 (compounds for which there was clear down regulation at 5 μg/ml and 50 μg/ml) |
| COCCCNC(=O)c1ccc2c(c1N)C(=O)c1ccccc1C2=O [compound 1337] | 11 (compounds for which there was clear down regulation only at 50 μg/ml) |
| O=C1Nc2ccccc2Oc2ccc([N+](=O)[O-])cc21 [compound 1352] | — (compounds for which there was no clear down regulation even at 50 μg/ml) |
| Flunarizinehydrochloride [compound 312] | — (compounds for which there was no clear down regulation even at 50 μg/ml) |
| Maprotilinehydrochloride [compound 346] | 11 (compounds for which there was clear down regulation only at 50 μg/ml) |
| Metixene hydrochloride [compound 491] | 11 (compounds for which there was clear down regulation only at 50 μg/ml) |
| Prochlorperazinedimaleate [compound 399] | 11 (compounds for which there was clear down regulation only at 50 μg/ml) |
| Trifluoperazinedihydrochloride [compound 313] | 11 (compounds for which there was clear down regulation only at 50 μg/ml) |
